According to article PMC11045757, “Group 3 medulloblastoma transcriptional networks collapse under domain specific EP300/CBP inhibition” (Nature Communications, 2024):
Values joined by “and” are separate entries in the source; they are usually repeats but may differ in a detail not shown here. Identical values can stand only once.

Assays:
BRD4-BD1 (BRD4-1) = biological target: T1, BRD4-BD1 (BRD4-1) (Homo sapiens, UniProt O60885); assay: Differential scanning fluorimetry (DSF) thermal shift; type: binding
T1 construct: BRD4-BD1 (residues 44-168); 6xHis (cleaved yes); host or cells: E. coli BL21 (DE3) RIL
Method in brief: (§1)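 Thermal shift of 5 μM E. coli-expressed bromodomain with 100 μM compound in 50 mM HEPES pH 7.5, 150 mM NaCl, 2 mM DTT, 2% DMSO, 5X SYPRO Orange, quadruplicate. Heated 25→95 °C at 1 °C/min, fluorescence at 610 nm; ΔTm relative to DMSO reference wells.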

EP300 bromodomain = biological target: T2, EP300 bromodomain (Homo sapiens, UniProt Q09472); assay: as above; type: binding
T2 construct: 6xHis (cleaved yes); host or cells: E. coli BL21 (DE3) RIL
T2 sequence (Q09472 1048-1161): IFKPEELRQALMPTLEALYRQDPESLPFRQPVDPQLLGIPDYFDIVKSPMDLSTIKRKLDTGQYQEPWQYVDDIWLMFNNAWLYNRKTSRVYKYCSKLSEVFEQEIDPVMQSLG
Method in brief: as §1

ATAD2A = biological target: T3, ATAD2A (Homo sapiens, UniProt Q6PL18); assay: BromoScan profiling (DiscoverX); type: binding; conditions: read-out: Percent Control ATAD2A
T3 construct: purchased Eurofins DiscoverX (BROMOscan)
T3 sequence (Q6PL18 whole entry): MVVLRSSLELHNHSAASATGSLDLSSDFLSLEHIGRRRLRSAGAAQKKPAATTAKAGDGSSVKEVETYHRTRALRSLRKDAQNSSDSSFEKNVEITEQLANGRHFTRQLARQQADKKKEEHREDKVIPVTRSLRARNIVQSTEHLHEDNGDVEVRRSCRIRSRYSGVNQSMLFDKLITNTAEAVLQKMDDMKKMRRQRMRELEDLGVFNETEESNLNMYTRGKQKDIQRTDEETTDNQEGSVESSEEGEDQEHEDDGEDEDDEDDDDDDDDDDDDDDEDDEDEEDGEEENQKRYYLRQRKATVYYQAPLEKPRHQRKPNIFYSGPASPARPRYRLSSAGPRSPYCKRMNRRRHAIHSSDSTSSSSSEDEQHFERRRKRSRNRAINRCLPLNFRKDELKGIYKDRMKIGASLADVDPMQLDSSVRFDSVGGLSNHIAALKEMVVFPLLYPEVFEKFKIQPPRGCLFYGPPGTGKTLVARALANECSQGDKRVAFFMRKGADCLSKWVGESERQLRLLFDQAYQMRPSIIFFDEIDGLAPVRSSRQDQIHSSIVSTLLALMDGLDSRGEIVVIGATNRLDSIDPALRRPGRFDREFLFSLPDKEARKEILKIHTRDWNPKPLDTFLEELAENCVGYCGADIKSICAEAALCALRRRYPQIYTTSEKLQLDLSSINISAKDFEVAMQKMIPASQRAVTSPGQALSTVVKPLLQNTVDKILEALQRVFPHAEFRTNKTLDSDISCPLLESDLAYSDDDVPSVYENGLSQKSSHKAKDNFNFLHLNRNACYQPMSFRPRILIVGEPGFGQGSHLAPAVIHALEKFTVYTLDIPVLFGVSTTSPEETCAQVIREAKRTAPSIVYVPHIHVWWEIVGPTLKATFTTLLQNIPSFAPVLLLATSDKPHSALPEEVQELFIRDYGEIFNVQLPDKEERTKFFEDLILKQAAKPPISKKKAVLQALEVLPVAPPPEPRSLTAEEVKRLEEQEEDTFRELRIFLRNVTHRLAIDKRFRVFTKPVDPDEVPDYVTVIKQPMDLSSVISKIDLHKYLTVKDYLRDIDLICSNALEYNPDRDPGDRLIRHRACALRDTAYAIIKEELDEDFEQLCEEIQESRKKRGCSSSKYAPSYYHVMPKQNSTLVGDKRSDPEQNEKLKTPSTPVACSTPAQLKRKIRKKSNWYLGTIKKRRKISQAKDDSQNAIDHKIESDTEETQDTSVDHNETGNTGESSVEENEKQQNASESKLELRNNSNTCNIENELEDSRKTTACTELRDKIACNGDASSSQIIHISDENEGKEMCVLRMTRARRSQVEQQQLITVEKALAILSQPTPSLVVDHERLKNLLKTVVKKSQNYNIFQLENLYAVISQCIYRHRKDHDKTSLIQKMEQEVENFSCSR

BAZ2A = biological target: T4, BAZ2A (Homo sapiens, UniProt Q9UIF9); assay: BromoScan profiling (DiscoverX); type: binding; conditions: read-out: Percent Control BAZ2A
T4 construct: purchased Eurofins DiscoverX (BROMOscan)
T4 sequence (Q9UIF9 whole entry): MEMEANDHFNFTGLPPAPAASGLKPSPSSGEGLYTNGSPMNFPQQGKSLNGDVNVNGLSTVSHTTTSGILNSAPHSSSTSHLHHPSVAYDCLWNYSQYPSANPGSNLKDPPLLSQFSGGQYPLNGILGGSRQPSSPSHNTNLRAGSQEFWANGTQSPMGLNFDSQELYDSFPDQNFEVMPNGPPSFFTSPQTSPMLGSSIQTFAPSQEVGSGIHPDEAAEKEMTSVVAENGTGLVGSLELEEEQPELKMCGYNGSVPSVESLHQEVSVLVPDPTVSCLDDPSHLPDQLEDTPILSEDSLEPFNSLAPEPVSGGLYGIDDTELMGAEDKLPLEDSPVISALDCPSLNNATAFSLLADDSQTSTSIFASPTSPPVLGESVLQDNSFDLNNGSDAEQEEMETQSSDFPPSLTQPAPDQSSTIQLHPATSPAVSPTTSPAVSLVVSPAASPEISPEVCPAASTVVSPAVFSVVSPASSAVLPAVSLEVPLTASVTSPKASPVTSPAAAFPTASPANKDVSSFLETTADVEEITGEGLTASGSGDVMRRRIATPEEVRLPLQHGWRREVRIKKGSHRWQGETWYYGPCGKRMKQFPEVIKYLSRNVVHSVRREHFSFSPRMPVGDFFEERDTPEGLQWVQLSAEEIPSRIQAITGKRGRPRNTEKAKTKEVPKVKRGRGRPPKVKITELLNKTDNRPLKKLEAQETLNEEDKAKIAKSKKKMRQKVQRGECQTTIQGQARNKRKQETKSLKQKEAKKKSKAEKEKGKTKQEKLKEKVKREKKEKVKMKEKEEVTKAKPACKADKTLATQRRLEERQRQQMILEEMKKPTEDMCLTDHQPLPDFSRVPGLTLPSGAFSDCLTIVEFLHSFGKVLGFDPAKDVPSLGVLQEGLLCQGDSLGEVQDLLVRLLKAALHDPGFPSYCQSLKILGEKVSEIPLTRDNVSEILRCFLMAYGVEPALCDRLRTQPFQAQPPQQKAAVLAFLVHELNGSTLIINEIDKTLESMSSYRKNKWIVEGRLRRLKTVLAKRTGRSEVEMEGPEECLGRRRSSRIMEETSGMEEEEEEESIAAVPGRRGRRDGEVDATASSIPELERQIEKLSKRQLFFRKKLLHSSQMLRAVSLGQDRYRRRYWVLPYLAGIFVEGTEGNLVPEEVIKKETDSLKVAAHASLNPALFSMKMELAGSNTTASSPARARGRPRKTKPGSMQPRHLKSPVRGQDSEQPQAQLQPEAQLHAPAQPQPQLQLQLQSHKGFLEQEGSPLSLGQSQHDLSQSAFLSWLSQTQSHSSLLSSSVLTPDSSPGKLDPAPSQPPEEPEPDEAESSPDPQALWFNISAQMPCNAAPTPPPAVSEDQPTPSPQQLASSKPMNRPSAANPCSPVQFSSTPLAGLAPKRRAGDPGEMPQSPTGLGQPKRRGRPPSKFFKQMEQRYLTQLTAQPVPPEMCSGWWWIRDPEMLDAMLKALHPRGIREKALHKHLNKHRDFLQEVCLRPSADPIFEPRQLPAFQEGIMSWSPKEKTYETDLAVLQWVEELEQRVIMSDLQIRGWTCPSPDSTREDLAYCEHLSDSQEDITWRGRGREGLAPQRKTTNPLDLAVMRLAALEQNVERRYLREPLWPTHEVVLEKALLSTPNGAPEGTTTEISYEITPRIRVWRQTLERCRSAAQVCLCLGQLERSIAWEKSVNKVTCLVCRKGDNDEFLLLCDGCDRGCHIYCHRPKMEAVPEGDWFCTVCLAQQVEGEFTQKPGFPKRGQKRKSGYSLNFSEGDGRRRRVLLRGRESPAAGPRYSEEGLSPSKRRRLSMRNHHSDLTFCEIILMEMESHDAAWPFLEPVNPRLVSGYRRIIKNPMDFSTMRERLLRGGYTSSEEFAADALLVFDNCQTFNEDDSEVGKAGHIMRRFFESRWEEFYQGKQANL

BRD2(1) = biological target: T5, BRD2(1) (Homo sapiens, UniProt P25440); assay: BromoScan profiling (DiscoverX); type: binding; conditions: read-out: Percent Control BRD2(1)
T5 construct: BRD2(1); purchased Eurofins DiscoverX (BROMOscan)

BRD4(2) = biological target: T6, BRD4(2) (Homo sapiens, UniProt O60885); assay: BromoScan profiling (DiscoverX); type: binding; conditions: read-out: Percent Control BRD4(2)
T6 construct: BRD4(2); purchased Eurofins DiscoverX (BROMOscan)

BRPF1 = biological target: T7, BRPF1 (Homo sapiens, UniProt P55201); assay: BromoScan profiling (DiscoverX); type: binding; conditions: read-out: Percent Control BRPF1
T7 construct: purchased Eurofins DiscoverX (BROMOscan)

CECR2 = biological target: T8, CECR2 (Homo sapiens, UniProt Q9BXF3); assay: BromoScan profiling (DiscoverX); type: binding; conditions: read-out: Percent Control CECR2
T8 construct: purchased Eurofins DiscoverX (BROMOscan)

EP300 = biological target: T9, EP300 (Homo sapiens, UniProt Q09472); assay: BromoScan profiling (DiscoverX); type: binding; conditions: read-out: Percent Control EP300
T9 construct: purchased Eurofins DiscoverX (BROMOscan)

GCN5L2 = biological target: T10, GCN5L2 (Homo sapiens, UniProt Q92830); assay: BromoScan profiling (DiscoverX); type: binding; conditions: read-out: Percent Control GCN5L2
T10 construct: purchased Eurofins DiscoverX (BROMOscan)

PBRM1(2) = biological target: T11, PBRM1(2) (Homo sapiens, UniProt Q86U86); assay: BromoScan profiling (DiscoverX); type: binding; conditions: read-out: Percent Control PBRM1(2)
T11 construct: PBRM1(2); purchased Eurofins DiscoverX (BROMOscan)

SMARCA2 = biological target: T12, SMARCA2 (Homo sapiens, UniProt P51531); assay: BromoScan profiling (DiscoverX); type: binding; conditions: read-out: Percent Control SMARCA2
T12 construct: purchased Eurofins DiscoverX (BROMOscan)
T12 sequence (P51531 whole entry): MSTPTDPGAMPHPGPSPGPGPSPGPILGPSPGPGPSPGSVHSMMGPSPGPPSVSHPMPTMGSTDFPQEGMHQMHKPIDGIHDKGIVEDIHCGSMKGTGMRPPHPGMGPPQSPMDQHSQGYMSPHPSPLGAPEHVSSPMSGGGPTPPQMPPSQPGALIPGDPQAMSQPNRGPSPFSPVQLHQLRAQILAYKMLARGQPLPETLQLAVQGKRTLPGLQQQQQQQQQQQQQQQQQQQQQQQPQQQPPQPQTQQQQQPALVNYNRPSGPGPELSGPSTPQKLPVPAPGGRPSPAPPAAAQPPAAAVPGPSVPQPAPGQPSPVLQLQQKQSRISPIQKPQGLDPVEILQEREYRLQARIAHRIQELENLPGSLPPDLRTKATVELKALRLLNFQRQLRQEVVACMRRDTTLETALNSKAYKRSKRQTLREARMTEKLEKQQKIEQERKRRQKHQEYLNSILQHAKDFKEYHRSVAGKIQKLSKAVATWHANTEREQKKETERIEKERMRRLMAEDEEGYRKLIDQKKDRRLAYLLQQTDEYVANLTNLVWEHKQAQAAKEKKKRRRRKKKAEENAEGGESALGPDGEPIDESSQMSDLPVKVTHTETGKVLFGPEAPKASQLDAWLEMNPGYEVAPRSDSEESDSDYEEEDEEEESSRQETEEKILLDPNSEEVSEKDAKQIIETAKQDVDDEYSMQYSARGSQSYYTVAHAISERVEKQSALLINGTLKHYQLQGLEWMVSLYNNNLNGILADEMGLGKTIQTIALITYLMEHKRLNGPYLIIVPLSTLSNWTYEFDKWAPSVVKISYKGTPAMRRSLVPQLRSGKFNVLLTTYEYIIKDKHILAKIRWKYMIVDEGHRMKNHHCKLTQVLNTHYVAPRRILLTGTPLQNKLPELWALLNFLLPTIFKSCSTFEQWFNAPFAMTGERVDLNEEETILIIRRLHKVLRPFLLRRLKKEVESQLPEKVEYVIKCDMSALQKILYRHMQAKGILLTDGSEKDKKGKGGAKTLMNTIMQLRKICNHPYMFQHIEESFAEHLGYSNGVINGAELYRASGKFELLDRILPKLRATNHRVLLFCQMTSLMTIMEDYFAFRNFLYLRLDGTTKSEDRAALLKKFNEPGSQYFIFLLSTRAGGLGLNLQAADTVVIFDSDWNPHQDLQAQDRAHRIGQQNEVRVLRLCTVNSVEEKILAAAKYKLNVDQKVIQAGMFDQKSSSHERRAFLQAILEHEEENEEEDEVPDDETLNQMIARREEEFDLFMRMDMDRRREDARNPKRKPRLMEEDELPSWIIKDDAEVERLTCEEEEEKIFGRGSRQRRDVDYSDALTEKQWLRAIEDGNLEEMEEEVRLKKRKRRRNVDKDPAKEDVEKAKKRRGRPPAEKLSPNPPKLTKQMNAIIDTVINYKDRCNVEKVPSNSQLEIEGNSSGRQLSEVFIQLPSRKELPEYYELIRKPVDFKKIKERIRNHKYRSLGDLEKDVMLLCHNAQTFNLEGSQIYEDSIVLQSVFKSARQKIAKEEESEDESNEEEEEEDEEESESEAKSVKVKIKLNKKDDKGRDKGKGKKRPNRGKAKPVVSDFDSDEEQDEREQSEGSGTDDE

TAF1(2) = biological target: T13, TAF1(2) (Homo sapiens, UniProt P21675); assay: BromoScan profiling (DiscoverX); type: binding; conditions: read-out: Percent Control TAF1(2)
T13 construct: TAF1(2); purchased Eurofins DiscoverX (BROMOscan)
T13 sequence (P21675 1519-1656 limits assumed): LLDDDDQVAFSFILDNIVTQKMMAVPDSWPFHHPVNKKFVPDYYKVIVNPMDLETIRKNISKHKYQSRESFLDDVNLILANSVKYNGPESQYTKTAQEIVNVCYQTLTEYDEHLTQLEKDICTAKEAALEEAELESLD

TAF1L(2) = biological target: T14, TAF1L(2) (Homo sapiens, UniProt Q8IZX4); assay: BromoScan profiling (DiscoverX); type: binding; conditions: read-out: Percent Control TAF1L(2)
T14 construct: TAF1L(2); purchased Eurofins DiscoverX (BROMOscan)
T14 sequence (Q8IZX4 1517-1654 limits assumed): as the sequence (P21675 1519-1656 limits assumed) above, with V46M, M51V, V102I, L107I counted along it

TRIM24(PHD,Bromo.) = biological target: T15, TRIM24(PHD,Bromo.) (Homo sapiens, UniProt O15164); assay: BromoScan profiling (DiscoverX); type: binding; conditions: read-out: Percent Control TRIM24(PHD,Bromo.)
T15 construct: purchased Eurofins DiscoverX (BROMOscan)

[1] = tested on: c-MYC in HDMB03 (HDMBO3) cells; assay: Western blotting for c-MYC after 6 h treatment; type: cell-based; conditions: CCS1477 39 nM, A485 400 nM, JQ1 100 nM
From the text: Line width indicates strength of known protein-protein interactions. Red indicates proteins involved in control of mRNA transcription/cell cycle, blue indicates proteins involved in RNA metabolism.
Western blotting protocols were as previously described[16],[69]. Briefly, cells growing in culture were lysed for whole-cell lysates using RIPA buffer, or for affinity pulldown using IP-lysis buffer (Pierce Biotechnology) per the manufacturer’s protocol. […] Equal amounts of protein were resolved by Western blotting using 4% to 12% Bis–Tris NuPAGE gels (Thermo Fisher Scientific) prior to transfer and immunoblotting using primary antibodies to EP300 (1:1000, Abcam ab10485), BRD4 (1:1000, Epicypher 13-2003), c-MYC (1:1000, Cell Signaling Technology #5605) or β-Actin (1:1000, Cell Signaling Technology #4967). Secondary antibodies were horseradish peroxidase–conjugated anti-rabbit or anti-mouse (1:5000, Santa Cruz Biotechnology, sc-2357, sc-358914), incubated prior to exposure to enhanced chemiluminescence reagents (GE Amersham). Densitometry was performed using Image Lab v6.1 (BioRad).

[2] = DSF, 5 μM protein, 100 μM compound, three independent experiments, average ± SD

- ΔTm (°C) (BRD4-BD1 (BRD4-1); DSF thermal shift vs DMSO, BRD4-BD1, Fig 2B): 6.7 °C
- ∆Tm (°C) BRD4-1 (BRD4-BD1 (BRD4-1); [2]): 6.7 ± 0.16 °C and 6.7 °C
- ΔTm (°C) (EP300 bromodomain; DSF thermal shift vs DMSO, EP300 bromodomain, Fig 2B): 18.3 °C
- ∆Tm (°C) EP300 (EP300 bromodomain; [2]): 18.3 ± 0.2 °C
- ΔTm (°C) EP300 (EP300 bromodomain; Figure 3B, DSF, EP300): 18.3 °C
- remaining binding at 1 µM (ATAD2A): 100%
- remaining binding at 1 µM (BAZ2A): 79%
- remaining binding at 1 µM (BRD2(1)): 3.5%
- remaining binding at 1 µM (BRD4(2)): 75%
- remaining binding at 1 µM (BRPF1): 31%
- remaining binding at 1 µM (CECR2): 78%
- remaining binding at 1 µM (EP300): 1.6%
- remaining binding at 1 µM (GCN5L2): 100%
- remaining binding at 1 µM (PBRM1(2)): 78%
- remaining binding at 1 µM (SMARCA2): 50%
- remaining binding at 1 µM (TAF1(2)): 69%
- remaining binding at 1 µM (TAF1L(2)): 80%
- remaining binding at 1 µM (TRIM24(PHD,Bromo.)): 54%
Compound: CO[C@H]1CC[C@H](n2c([C@@H]3CCCC(=O)N3c3ccc(F)c(F)c3)nc3cc(-c4c(C)noc4C)ccc32)CC1 [CCS1477]
- MYC gene expression and protein levels [1]: loss of MYC gene expression and protein levels
